Data from ChEMBL document CHEMBL5723584 (2023).

Experiments:
Conditions in all cases: Compound concentration 1.0 uM
[1] = molecular target: Activin receptor type-1-like (Homo sapiens) (UniProt P37023); assay: activity of ALK1(h) at 1.0 µM in the Eurofins Kinase panel
[2] = molecular target: Aurora kinase C (Homo sapiens) (UniProt Q9UQB9); assay: activity of Aurora-C(h) at 1.0 µM in the Eurofins Kinase panel
[3] = molecular target: Calcium/calmodulin-dependent protein kinase type 1 (Homo sapiens) (UniProt Q14012); assay: activity of CaMKI(h) at 1.0 µM in the Eurofins Kinase panel
[4] = molecular target: Calcium/calmodulin-dependent protein kinase type 1B (Homo sapiens) (UniProt Q6P2M8); assay: activity of CaMKIbeta(h) at 1.0 µM in the Eurofins Kinase panel
[5] = molecular target: Calcium/calmodulin-dependent protein kinase type 1G (Homo sapiens) (UniProt Q96NX5); assay: activity of CaMKIgamma(h) at 1.0 µM in the Eurofins Kinase panel
[6] = molecular target: Casein kinase I isoform gamma-1 (Homo sapiens) (UniProt Q9HCP0); assay: activity of CK1gamma1(h) at 1.0 µM in the Eurofins Kinase panel
[7] = molecular target: Dual specificity protein kinase CLK3 (Homo sapiens) (UniProt P49761); assay: activity of CLK3(h) at 1.0 µM in the Eurofins Kinase panel
[8] = molecular target: Death-associated protein kinase 1 (Homo sapiens) (UniProt P53355); assay: activity of DAPK1(h) at 1.0 µM in the Eurofins Kinase panel
[9] = molecular target: Serine/threonine-protein kinase DCLK3 (Homo sapiens) (UniProt Q9C098); assay: activity of DCAMKL3(h) at 1.0 µM in the Eurofins Kinase panel
[10] = molecular target: Dual specificity tyrosine-phosphorylation-regulated kinase 2 (Homo sapiens) (UniProt Q92630); assay: activity of DYRK2(h) at 1.0 µM in the Eurofins Kinase panel
[11] = molecular target: Tyrosine-protein kinase Fer (Homo sapiens) (UniProt P16591); assay: activity of Fer(h) at 1.0 µM in the Eurofins Kinase panel
[12] = molecular target: Vascular endothelial growth factor receptor 1 (Homo sapiens) (UniProt P17948); assay: activity of Flt1(h) at 1.0 µM in the Eurofins Kinase panel
[13] = molecular target: eIF-2-alpha kinase GCN2 (Homo sapiens) (UniProt Q9P2K8); assay: activity of GCN2(h) at 1.0 µM in the Eurofins Kinase panel
[14] = molecular target: Rhodopsin kinase GRK1 (Homo sapiens) (UniProt Q15835); assay: activity of GRK1(h) at 1.0 µM in the Eurofins Kinase panel
[15] = molecular target: Beta-adrenergic receptor kinase 1 (Homo sapiens) (UniProt P25098); assay: activity of GRK2(h) at 1.0 µM in the Eurofins Kinase panel
[16] = molecular target: Rhodopsin kinase GRK7 (Homo sapiens) (UniProt Q8WTQ7); assay: activity of GRK7(h) at 1.0 µM in the Eurofins Kinase panel
[17] = molecular target: Serine/threonine-protein kinase STK11 (Homo sapiens) (UniProt Q15831); assay: activity of LKB1(h) at 1.0 µM in the Eurofins Kinase panel
[18] = molecular target: Serine/threonine-protein kinase 10 (Homo sapiens) (UniProt O94804); assay: activity of LOK(h) at 1.0 µM in the Eurofins Kinase panel
[19] = molecular target: Mitogen-activated protein kinase kinase kinase kinase 4 (Homo sapiens) (UniProt O95819); assay: activity of MAP4K4(h) at 1.0 µM in the Eurofins Kinase panel
[20] = molecular target: Dual specificity mitogen-activated protein kinase kinase 1 (Homo sapiens) (UniProt Q02750); assay: activity of MEK1(h) at 1.0 µM in the Eurofins Kinase panel
[21] = molecular target: Dual specificity mitogen-activated protein kinase kinase 6 (Homo sapiens) (UniProt P52564); assay: activity of MKK6(h) at 1.0 µM in the Eurofins Kinase panel
[22] = molecular target: Mitogen-activated protein kinase kinase kinase 10 (Homo sapiens) (UniProt Q02779); assay: activity of MLK2(h) at 1.0 µM in the Eurofins Kinase panel
[23] = molecular target: Mitogen-activated protein kinase kinase kinase 11 (Homo sapiens) (UniProt Q16584); assay: activity of MLK3(h) at 1.0 µM in the Eurofins Kinase panel
[24] = molecular target: Muscle, skeletal receptor tyrosine-protein kinase (Homo sapiens) (UniProt O15146); assay: activity of MuSK(h) at 1.0 µM in the Eurofins Kinase panel
[25] = molecular target: Serine/threonine-protein kinase Nek11 (Homo sapiens) (UniProt Q8NG66); assay: activity of NEK11(h) at 1.0 µM in the Eurofins Kinase panel
[26] = molecular target: Serine/threonine-protein kinase PAK 2 (Homo sapiens) (UniProt Q13177); assay: activity of PAK2(h) at 1.0 µM in the Eurofins Kinase panel
[27] = molecular target: Protein kinase C beta type (Homo sapiens) (UniProt P05771); assay: activity of PKCbetaI(h) at 1.0 µM in the Eurofins Kinase panel
[28] = molecular target: cGMP-dependent protein kinase 2 (Homo sapiens) (UniProt Q13237); assay: activity of PRKG2(h) at 1.0 µM in the Eurofins Kinase panel
[29] = molecular target: Tyrosine-protein kinase FRK (Homo sapiens) (UniProt P42685); assay: activity of PTK5(h) at 1.0 µM in the Eurofins Kinase panel
[30] = molecular target: Proto-oncogene tyrosine-protein kinase ROS (Homo sapiens) (UniProt P08922); assay: activity of Ros(h) at 1.0 µM in the Eurofins Kinase panel
[31] = molecular target: Serine/threonine-protein kinase SIK3 (Homo sapiens) (UniProt Q9Y2K2); assay: activity of SIK3(h) at 1.0 µM in the Eurofins Kinase panel
[32] = molecular target: Serine/threonine-protein kinase PLK2 (Homo sapiens) (UniProt Q9NYY3); assay: activity of Snk(h) at 1.0 µM in the Eurofins Kinase panel
[33] = molecular target: SNF-related serine/threonine-protein kinase (Homo sapiens) (UniProt Q9NRH2); assay: activity of SNRK(h) at 1.0 µM in the Eurofins Kinase panel
[34] = molecular target: Serine/threonine-protein kinase 32A (Homo sapiens) (UniProt Q8WU08); assay: activity of STK32A(h) at 1.0 µM in the Eurofins Kinase panel
[35] = molecular target: STE20/SPS1-related proline-alanine-rich protein kinase (Homo sapiens) (UniProt Q9UEW8); assay: activity of STK39(h) at 1.0 µM in the Eurofins Kinase panel
[36] = molecular target: Mitogen-activated protein kinase kinase kinase 7 (Homo sapiens) (UniProt O43318); assay: activity of TAK1(h) at 1.0 µM in the Eurofins Kinase panel
[37] = molecular target: TGF-beta receptor type-2 (Homo sapiens) (UniProt P37173); assay: activity of TGFBR2(h) at 1.0 µM in the Eurofins Kinase panel
[38] = molecular target: Tau-tubulin kinase 1 (Homo sapiens) (UniProt Q5TCY1); assay: activity of TTBK1(h) at 1.0 µM in the Eurofins Kinase panel
[39] = molecular target: Serine/threonine-protein kinase WNK3 (Homo sapiens) (UniProt Q9BYP7); assay: activity of WNK3(h) at 1.0 µM in the Eurofins Kinase panel

Chain of Tau-tubulin kinase 1 (Homo sapiens) (Q5TCY1 whole entry): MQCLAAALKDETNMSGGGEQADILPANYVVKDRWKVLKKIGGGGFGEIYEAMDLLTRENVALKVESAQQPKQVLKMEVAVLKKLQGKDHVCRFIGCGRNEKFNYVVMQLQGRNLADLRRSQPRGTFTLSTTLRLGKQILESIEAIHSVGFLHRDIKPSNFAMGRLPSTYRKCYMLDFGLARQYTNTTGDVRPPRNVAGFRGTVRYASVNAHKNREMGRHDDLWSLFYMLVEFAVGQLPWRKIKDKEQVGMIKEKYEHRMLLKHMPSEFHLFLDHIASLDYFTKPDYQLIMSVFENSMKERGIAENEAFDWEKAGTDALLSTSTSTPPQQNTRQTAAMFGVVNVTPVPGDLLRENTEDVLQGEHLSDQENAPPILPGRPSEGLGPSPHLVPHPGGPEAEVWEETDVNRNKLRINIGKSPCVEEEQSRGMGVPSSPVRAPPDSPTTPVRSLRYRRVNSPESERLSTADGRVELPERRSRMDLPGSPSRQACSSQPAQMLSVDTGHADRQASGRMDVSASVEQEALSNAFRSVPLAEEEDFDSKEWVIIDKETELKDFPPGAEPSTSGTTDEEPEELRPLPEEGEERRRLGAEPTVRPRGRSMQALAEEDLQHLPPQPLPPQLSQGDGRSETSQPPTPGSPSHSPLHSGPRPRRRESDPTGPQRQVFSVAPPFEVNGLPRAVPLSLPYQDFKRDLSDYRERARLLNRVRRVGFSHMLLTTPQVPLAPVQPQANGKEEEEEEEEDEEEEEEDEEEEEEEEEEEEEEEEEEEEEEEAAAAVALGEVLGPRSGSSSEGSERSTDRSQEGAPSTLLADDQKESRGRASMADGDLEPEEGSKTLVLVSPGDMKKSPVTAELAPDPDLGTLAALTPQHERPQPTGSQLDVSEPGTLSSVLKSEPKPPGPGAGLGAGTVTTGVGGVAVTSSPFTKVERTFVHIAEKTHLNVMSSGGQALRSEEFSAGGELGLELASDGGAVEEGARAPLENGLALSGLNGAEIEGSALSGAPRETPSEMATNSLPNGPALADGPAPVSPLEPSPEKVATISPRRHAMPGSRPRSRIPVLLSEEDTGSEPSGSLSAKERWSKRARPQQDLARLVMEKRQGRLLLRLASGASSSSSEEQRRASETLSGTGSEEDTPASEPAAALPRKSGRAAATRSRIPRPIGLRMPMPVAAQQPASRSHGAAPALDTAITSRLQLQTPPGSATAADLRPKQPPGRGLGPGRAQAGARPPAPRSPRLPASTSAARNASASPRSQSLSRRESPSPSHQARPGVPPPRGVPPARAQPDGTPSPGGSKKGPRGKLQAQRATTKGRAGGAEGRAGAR
Chain of Activin receptor type-1-like (Homo sapiens) (P37023 whole entry): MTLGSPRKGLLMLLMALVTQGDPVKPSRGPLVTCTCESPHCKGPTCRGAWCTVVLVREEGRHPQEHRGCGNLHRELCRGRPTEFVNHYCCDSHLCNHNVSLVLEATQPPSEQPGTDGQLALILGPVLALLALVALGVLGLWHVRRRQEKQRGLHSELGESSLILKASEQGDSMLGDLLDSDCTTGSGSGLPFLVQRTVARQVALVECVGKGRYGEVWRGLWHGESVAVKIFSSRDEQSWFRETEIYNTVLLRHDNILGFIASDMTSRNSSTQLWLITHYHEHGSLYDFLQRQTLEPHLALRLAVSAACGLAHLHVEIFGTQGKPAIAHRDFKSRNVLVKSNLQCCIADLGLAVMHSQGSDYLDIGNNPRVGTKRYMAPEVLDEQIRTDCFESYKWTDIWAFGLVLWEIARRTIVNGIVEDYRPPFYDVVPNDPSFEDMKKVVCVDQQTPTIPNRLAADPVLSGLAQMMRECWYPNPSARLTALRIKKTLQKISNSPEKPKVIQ
Chain of Mitogen-activated protein kinase kinase kinase kinase 4 (Homo sapiens) (O95819 2-1239 limits assumed): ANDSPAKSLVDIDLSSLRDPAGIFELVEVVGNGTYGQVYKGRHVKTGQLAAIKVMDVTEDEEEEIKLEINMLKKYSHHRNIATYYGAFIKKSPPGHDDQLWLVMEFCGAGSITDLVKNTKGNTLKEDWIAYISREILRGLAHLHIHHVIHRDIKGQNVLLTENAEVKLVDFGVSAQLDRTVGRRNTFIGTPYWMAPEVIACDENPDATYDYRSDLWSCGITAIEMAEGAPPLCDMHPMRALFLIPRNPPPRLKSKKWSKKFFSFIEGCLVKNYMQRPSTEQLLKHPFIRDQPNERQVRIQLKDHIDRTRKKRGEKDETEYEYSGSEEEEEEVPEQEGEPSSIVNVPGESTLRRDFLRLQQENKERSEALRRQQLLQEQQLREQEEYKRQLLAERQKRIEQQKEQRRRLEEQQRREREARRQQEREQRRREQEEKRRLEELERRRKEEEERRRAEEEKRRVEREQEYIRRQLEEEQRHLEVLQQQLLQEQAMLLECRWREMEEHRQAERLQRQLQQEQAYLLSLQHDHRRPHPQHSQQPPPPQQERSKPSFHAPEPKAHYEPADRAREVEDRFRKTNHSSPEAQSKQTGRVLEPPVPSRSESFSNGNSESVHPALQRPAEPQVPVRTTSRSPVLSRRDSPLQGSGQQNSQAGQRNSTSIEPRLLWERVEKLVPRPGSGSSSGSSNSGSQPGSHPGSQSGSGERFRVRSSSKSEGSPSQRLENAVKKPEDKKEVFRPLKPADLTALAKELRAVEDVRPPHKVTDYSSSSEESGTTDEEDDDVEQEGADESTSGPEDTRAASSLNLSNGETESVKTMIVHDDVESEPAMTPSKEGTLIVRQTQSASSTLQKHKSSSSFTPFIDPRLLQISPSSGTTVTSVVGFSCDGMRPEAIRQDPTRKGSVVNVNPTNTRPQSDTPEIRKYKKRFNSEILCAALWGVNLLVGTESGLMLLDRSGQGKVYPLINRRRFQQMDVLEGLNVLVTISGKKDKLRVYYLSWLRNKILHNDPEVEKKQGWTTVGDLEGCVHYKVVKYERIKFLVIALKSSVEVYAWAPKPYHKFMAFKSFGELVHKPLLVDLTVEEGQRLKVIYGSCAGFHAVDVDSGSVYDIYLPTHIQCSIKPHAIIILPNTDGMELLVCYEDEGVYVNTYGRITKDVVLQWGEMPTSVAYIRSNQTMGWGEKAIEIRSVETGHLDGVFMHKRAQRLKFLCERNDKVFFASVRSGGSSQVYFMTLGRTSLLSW
Chain of Death-associated protein kinase 1 (Homo sapiens) (P53355 whole entry, looked up): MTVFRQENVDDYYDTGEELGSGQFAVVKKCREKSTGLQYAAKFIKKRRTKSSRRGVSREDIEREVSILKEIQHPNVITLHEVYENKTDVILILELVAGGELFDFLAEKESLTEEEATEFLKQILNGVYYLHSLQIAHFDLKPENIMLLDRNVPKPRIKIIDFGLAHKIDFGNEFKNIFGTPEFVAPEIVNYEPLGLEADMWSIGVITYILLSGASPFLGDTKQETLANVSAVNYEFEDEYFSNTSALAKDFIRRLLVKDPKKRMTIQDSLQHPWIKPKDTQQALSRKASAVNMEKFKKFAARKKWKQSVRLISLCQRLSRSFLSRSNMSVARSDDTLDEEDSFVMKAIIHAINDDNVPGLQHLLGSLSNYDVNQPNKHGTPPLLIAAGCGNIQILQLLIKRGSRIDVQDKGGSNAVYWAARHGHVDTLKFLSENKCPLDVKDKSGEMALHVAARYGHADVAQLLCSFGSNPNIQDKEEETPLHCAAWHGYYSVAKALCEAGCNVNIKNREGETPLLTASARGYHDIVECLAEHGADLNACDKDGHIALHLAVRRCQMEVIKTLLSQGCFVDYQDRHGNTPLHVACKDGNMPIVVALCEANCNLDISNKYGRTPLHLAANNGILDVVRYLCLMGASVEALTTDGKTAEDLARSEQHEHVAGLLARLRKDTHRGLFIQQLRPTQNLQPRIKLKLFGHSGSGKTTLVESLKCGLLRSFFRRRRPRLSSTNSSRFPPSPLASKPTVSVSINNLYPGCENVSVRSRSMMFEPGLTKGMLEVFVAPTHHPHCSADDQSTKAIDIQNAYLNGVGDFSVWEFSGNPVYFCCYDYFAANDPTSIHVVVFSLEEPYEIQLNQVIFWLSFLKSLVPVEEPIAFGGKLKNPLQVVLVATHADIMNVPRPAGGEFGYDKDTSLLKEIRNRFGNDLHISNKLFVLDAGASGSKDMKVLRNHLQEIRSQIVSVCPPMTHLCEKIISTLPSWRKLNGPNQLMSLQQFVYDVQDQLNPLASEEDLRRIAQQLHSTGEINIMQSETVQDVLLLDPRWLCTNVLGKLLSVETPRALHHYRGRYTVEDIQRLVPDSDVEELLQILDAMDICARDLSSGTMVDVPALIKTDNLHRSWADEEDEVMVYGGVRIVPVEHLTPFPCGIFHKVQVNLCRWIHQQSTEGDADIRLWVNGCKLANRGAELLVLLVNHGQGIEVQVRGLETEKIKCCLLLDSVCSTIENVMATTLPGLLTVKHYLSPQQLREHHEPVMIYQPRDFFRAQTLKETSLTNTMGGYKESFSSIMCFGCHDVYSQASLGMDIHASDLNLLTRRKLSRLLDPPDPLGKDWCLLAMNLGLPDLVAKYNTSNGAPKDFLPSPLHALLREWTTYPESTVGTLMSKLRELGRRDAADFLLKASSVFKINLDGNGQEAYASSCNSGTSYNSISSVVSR
Chain of Serine/threonine-protein kinase STK11 (Homo sapiens) (Q15831 whole entry): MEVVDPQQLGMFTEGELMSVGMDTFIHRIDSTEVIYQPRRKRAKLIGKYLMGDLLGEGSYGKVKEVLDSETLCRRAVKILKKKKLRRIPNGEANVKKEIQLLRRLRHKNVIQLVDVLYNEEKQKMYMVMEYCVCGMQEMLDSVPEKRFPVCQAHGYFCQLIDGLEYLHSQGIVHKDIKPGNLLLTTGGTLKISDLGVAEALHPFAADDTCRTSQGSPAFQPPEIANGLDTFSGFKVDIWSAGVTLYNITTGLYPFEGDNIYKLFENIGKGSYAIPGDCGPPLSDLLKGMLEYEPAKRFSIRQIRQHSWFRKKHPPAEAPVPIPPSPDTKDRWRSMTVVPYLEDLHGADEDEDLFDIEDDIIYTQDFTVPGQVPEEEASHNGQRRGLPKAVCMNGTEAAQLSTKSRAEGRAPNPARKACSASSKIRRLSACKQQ

Cc1cc2c(-c3ccc(NC(=O)[C@H](N)CC(C)(C)C)cc3C)ccnc2[nH]1
activity [1]: 94%
activity [2]: 94%
activity [3]: 104%
activity [4]: 85%
activity [5]: 110%
activity [6]: 101%
activity [7]: 107%
activity [8]: 82%
activity [9]: 86%
activity [10]: 101%
activity [11]: 103%
activity [12]: 125%
activity [13]: 101%
activity [14]: 86%
activity [15]: 95%
activity [16]: 98%
activity [17]: 99%
activity [18]: 96%
activity [19]: 101%
activity [20]: 101%
activity [21]: 101%
activity [22]: 77%
activity [23]: 91%
activity [24]: 96%
activity [25]: 97%
activity [26]: 95%
activity [27]: 90%
activity [28]: 110%
activity [29]: 90%
activity [30]: 97%
activity [31]: 105%
activity [32]: 94%
activity [33]: 111%
activity [34]: 90%
activity [35]: 102%
activity [36]: 91%
activity [37]: 96%
activity [38]: 96%
activity [39]: 85%
